Results: patent US20220194940A1, “HETEROCYCLIC INHIBITORS OF TYROSINE KINASE” (Board of Regents, The University of Texas System, priority 2019, published 2022)

Assays:
Format in all cases: cell-based
[1] = target: EGFR A767insASV (Homo sapiens, UniProt P00533, cells depend on it, form not given); assay: Ba/F3 cell viability, EGFR A767insASV; settings: logarithm of IC50, second listing in Table 2 (r23)
Experimental: (§1) 72 hours after transduction, 2 μg/ml puromycin (Invitrogen) was added to the medium.

[2] = target: T1, EGFR WT (Homo sapiens, UniProt P00533); assay: Ba/F3 cell viability (Cell Titer Glo), WT EGFR
T1 construct: expressed in transfected cells; host or cells: Ba/F3 (retroviral transduction, pBABE-Puro-based vectors)
Experimental: as §1

[3] = target: T2, EGFR N771insSVDNR (Homo sapiens, UniProt P00533, INS771SVDNR); assay: Ba/F3 cell viability, EGFR N771insSVDNR
T2 construct: expressed in transfected cells; host or cells: Ba/F3 (retroviral transduction, pBABE-Puro-based vectors)
Experimental: as §1

[4] = target: T3, EGFR A767insTLA (Homo sapiens, UniProt P00533, INS767TLA); assay: Ba/F3 cell viability, EGFR A767insTLA; settings: logarithm of IC50
T3 construct: expressed in transfected cells; host or cells: Ba/F3 (retroviral transduction, pBABE-Puro-based vectors)
Experimental: as §1

[5] = target: T4, EGFR D770del insGY (Homo sapiens, UniProt P00533, D770Y/INS769G); assay: Ba/F3 cell viability, EGFR D770del insGY; settings: logarithm of IC50
T4 construct: expressed in transfected cells; host or cells: Ba/F3 (retroviral transduction, pBABE-Puro-based vectors)
Experimental: as §1

[6] = target: T5, EGFR H773insAH (Homo sapiens, UniProt P00533, INS773AH); assay: Ba/F3 cell viability, EGFR H773insAH; settings: logarithm of IC50
T5 construct: expressed in transfected cells; host or cells: Ba/F3 (retroviral transduction, pBABE-Puro-based vectors)
Experimental: as §1

[7] = target: T6, EGFR N771insHH (Homo sapiens, UniProt P00533, INS771HH); assay: Ba/F3 cell viability, EGFR N771insHH; settings: logarithm of IC50
T6 construct: expressed in transfected cells; host or cells: Ba/F3 (retroviral transduction, pBABE-Puro-based vectors)
Experimental: as §1

[8] = target: T7, EGFR P772insDNP (Homo sapiens, UniProt P00533, INS772DNP); assay: Ba/F3 cell viability, EGFR P772insDNP; settings: logarithm of IC50
T7 construct: expressed in transfected cells; host or cells: Ba/F3 (retroviral transduction, pBABE-Puro-based vectors)
Experimental: as §1

[9] = target: T8, EGFR S768I T790M (Homo sapiens, UniProt P00533, S768I/T790M); assay: Ba/F3 cell viability, EGFR S768I T790M; settings: logarithm of IC50
T8 construct: expressed in transfected cells; host or cells: Ba/F3 (retroviral transduction, pBABE-Puro-based vectors)
Experimental: as §1

[10] = target: T9, EGFR V769insGSV (Homo sapiens, UniProt P00533, INS769GSV); assay: Ba/F3 cell viability, EGFR V769insGSV; settings: logarithm of IC50
T9 construct: expressed in transfected cells; host or cells: Ba/F3 (retroviral transduction, pBABE-Puro-based vectors)
Experimental: as §1

[11] = target: T10, EGFR V769insGVV (Homo sapiens, UniProt P00533, INS769GVV); assay: Ba/F3 cell viability, EGFR V769insGVV; settings: logarithm of IC50
T10 construct: expressed in transfected cells; host or cells: Ba/F3 (retroviral transduction, pBABE-Puro-based vectors)
Experimental: as §1

[12] = target: T11, EGFR V769insMASVD (Homo sapiens, UniProt P00533, INS769MASVD); assay: Ba/F3 cell viability, EGFR V769insMASVD; settings: logarithm of IC50
T11 construct: expressed in transfected cells; host or cells: Ba/F3 (retroviral transduction, pBABE-Puro-based vectors)
Experimental: as §1

[13] = target: T12, EGFR V769L (Homo sapiens, UniProt P00533, V769L); assay: Ba/F3 cell viability, EGFR V769L; settings: logarithm of IC50
T12 construct: expressed in transfected cells; host or cells: Ba/F3 (retroviral transduction, pBABE-Puro-based vectors)
Experimental: as §1

[14] = target: T13, EGFR H773L/V774M (Homo sapiens, UniProt P00533, H773L/V774M); assay: Ba/F3 cell viability, EGFR H773L/V774M; settings: logarithm of IC50
T13 construct: expressed in transfected cells; host or cells: Ba/F3 (retroviral transduction, pBABE-Puro-based vectors)
Experimental: as §1

[15] = target: T14, EGFR D770insNPG/C797S (Homo sapiens, UniProt P00533, C797S/INS770NPG); assay: Ba/F3 cell viability, EGFR D770insNPG/C797S; settings: logarithm of IC50
T14 construct: expressed in transfected cells; host or cells: Ba/F3 (retroviral transduction, pBABE-Puro-based vectors)
Experimental: as §1

[16] = target: T15, EGFR D770insNPG/T790M (Homo sapiens, UniProt P00533, INS770NPG/T790M); assay: Ba/F3 cell viability, EGFR D770insNPG/T790M; settings: logarithm of IC50
T15 construct: expressed in transfected cells; host or cells: Ba/F3 (retroviral transduction, pBABE-Puro-based vectors)
Experimental: as §1

[17] = target: T16, EGFR S768dupSVD/C797S (Homo sapiens, UniProt P00533, C797S/DUP768-770); assay: Ba/F3 cell viability, EGFR S768dupSVD/C797S; settings: logarithm of IC50
T16 construct: expressed in transfected cells; host or cells: Ba/F3 (retroviral transduction, pBABE-Puro-based vectors)
Experimental: as §1

[18] = target: T17, EGFR S768dupSVD/T790M (Homo sapiens, UniProt P00533, DUP768-770/T790M); assay: Ba/F3 cell viability, EGFR S768dupSVD/T790M; settings: logarithm of IC50
T17 construct: expressed in transfected cells; host or cells: Ba/F3 (retroviral transduction, pBABE-Puro-based vectors)
Experimental: as §1

T2 sequence (P00533 with tags, fused parts or gaps INS771SVDNR): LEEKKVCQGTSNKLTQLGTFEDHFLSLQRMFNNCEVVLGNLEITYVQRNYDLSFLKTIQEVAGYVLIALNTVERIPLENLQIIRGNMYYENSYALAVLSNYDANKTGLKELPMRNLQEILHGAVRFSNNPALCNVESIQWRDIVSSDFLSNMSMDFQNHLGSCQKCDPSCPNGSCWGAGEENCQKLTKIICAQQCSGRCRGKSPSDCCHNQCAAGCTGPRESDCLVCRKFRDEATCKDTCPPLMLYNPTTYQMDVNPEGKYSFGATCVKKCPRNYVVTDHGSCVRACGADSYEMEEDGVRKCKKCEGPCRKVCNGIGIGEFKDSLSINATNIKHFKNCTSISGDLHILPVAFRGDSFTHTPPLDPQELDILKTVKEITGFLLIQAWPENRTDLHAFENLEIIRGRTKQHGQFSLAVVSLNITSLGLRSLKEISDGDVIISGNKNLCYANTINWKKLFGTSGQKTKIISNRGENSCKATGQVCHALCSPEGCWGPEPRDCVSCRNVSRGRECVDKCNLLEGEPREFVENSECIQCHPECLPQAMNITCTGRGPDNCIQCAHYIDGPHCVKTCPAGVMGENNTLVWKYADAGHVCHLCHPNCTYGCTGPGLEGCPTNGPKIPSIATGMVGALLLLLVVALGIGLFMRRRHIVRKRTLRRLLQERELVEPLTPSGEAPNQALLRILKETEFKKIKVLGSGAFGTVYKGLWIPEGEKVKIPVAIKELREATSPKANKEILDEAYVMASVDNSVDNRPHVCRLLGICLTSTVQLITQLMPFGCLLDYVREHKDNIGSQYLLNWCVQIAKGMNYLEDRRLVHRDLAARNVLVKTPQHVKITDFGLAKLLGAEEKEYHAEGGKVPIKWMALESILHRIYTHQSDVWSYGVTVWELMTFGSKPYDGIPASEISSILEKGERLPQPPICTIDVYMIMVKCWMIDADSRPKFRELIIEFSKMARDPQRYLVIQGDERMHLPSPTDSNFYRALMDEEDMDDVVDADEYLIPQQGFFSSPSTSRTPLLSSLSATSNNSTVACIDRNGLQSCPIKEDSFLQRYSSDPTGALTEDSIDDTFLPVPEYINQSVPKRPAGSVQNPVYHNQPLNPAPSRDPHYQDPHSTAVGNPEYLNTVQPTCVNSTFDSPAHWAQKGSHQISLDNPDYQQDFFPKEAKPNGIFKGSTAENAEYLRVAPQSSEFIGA
T1 sequence (P00533 25-1210): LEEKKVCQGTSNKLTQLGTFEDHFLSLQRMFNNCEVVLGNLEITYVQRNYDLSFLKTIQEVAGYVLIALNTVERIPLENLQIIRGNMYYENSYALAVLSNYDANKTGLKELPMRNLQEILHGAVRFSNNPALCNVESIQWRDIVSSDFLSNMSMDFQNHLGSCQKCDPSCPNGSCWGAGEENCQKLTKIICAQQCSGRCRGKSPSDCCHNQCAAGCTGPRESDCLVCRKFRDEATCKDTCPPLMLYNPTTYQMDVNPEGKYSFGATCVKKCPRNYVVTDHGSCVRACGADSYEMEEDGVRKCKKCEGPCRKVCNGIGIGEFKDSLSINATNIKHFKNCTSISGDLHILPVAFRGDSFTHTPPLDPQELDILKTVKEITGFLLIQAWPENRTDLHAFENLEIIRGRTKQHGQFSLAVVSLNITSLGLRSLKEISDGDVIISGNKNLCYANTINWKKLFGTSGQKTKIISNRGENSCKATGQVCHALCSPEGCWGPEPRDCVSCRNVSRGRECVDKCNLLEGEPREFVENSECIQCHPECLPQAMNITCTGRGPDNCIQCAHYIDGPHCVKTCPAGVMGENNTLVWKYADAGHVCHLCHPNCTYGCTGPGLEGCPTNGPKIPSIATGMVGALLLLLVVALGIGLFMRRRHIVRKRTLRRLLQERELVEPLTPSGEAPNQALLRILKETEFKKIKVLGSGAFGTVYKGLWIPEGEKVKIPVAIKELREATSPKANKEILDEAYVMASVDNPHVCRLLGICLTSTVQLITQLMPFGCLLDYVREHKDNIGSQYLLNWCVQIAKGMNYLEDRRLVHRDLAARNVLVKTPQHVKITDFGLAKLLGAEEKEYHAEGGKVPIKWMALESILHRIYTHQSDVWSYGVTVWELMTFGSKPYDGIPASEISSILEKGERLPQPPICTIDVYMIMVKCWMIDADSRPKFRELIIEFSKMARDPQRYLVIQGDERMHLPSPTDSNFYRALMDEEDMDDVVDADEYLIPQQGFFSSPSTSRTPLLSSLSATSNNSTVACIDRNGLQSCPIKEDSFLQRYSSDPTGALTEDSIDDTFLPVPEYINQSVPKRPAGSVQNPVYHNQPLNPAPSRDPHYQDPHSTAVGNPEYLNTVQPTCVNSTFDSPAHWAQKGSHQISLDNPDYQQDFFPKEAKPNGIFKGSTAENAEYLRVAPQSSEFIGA
T8 sequence (P00533 25-1210 S768I/T790M): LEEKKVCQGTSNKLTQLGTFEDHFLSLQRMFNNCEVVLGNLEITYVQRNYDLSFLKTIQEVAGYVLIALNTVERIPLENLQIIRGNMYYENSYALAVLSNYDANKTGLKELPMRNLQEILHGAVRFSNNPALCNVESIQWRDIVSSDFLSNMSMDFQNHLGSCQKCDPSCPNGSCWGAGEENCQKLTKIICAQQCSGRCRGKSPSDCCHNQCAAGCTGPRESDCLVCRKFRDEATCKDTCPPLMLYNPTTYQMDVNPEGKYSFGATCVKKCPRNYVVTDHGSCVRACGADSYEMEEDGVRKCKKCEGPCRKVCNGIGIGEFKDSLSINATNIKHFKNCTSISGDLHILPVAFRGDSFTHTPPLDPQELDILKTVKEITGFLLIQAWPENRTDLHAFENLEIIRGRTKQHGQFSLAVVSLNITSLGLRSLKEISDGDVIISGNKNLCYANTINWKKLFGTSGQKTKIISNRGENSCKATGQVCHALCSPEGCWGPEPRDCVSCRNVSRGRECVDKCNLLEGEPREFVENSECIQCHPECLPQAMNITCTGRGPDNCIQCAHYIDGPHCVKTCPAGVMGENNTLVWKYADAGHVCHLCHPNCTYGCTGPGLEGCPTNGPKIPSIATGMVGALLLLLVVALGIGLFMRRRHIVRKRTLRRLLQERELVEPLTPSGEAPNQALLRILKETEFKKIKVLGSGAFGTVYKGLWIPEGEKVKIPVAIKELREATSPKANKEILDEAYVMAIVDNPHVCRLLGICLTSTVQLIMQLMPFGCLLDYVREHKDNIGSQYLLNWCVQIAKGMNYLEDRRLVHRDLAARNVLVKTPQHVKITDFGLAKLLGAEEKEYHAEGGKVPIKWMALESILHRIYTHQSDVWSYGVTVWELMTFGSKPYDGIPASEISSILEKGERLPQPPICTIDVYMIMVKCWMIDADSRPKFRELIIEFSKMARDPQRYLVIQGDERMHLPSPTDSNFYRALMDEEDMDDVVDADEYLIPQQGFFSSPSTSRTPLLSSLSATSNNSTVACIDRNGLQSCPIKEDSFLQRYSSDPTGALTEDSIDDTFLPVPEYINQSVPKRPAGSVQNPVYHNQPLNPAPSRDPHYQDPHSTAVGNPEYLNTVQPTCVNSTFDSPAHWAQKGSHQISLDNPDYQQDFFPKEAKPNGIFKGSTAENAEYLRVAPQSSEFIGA
T11 sequence (P00533 with tags, fused parts or gaps INS769MASVD): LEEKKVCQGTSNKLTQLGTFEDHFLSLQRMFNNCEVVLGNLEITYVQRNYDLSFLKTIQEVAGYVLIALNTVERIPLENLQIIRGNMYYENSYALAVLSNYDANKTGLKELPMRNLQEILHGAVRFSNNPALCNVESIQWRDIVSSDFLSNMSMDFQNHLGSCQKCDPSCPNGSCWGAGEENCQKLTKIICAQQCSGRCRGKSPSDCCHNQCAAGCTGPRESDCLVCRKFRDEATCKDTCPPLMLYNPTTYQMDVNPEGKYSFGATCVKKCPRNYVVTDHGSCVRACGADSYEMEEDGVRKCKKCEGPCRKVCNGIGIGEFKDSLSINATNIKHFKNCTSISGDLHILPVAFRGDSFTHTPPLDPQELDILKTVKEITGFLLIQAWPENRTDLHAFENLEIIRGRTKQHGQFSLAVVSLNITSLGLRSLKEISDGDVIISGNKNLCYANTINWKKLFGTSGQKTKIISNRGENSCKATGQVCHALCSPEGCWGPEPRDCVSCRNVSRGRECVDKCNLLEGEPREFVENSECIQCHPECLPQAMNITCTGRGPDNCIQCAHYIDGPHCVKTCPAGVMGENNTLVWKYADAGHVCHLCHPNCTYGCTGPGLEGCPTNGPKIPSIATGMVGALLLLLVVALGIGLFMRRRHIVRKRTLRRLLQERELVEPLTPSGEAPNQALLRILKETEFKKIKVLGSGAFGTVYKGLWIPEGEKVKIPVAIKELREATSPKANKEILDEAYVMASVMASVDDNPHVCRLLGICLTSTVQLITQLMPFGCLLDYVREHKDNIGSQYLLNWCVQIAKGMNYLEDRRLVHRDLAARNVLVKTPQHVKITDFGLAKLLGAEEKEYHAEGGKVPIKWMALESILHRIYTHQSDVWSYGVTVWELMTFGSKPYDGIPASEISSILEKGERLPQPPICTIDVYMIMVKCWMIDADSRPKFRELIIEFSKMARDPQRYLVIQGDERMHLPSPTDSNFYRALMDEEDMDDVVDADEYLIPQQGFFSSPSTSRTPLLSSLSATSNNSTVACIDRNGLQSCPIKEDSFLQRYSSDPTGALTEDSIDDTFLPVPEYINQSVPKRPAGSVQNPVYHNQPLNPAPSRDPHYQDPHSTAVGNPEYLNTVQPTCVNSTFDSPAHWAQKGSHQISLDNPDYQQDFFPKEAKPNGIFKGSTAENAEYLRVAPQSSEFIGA

Compound | Log(IC50, nM) [1] | Log(IC50, nM) ([2]; Ba/F3 EGFR WT, comparison line of Table 3) | Log(IC50, nM) ([2]; logarithm of IC50, Ba/F3 cells expressing EGFR WT, Cell Titer Glo, 3 days, Table 2) | Log(IC50, nM) ([3]; logarithm of IC50, first listing in Table 2 (r10)) | Log(IC50, nM) ([3]; logarithm of IC50, second listing in Table 2 (r26)) | Log(IC50, nM) [4] | Log(IC50, nM) [5] | Log(IC50, nM) [6] | Log(IC50, nM) [7] | Log(IC50, nM) [8] | Log(IC50, nM) [9] | Log(IC50, nM) [10] | Log(IC50, nM) [11] | Log(IC50, nM) [12] | Log(IC50, nM) [13] | Log(IC50, nM) [14] | Log(IC50, nM) [15] | Log(IC50, nM) [16] | Log(IC50, nM) [17] | Log(IC50, nM) [18]
CN(C)C/C=C/C(=O)Nc1cc2c(Nc3ccc(Cl)c(Br)c3)ncnc2cn1 [Example 1, (E)-N-(4-((3-Bromo-4-chlorophenyl)amino)pyrido[3,4-d]pyrimidin-6-yl)-4-(dimethylamino)but-2-enamide] | 0.55 nM | – | – | – | – | – | – | – | – | – | – | – | – | – | – | – | – | – | – | –
CN(C)C/C=C/C(=O)Nc1cc2c(Nc3ccc(Cl)c(Cl)c3)ncnc2cn1 [Example 2, (E)-N-(4-((3,4-dichlorophenyl)amino)pyrido[3,4-d]pyrimidin-6-yl)-4-(dimethylamino)but-2-enamide] | 0.51 nM | 1.03 log(nM) | 1.03 log(nM) | 0.98 log(nM) | 1.08 log(nM) | 0.83 log(nM) | 0.71 log10(nM) | 0.88 log10(nM) | 0.33 log10(nM) | 0.94 log(nM) | 0.81 log10(nM) | 0.98 log(nM) | 1.40 log(nM) | 0.88 log10(nM) | 0.98 log(nM) | 1.41 log(nM) | 2.73 log10(nM) | 2.40 log10(nM) | 3.06 log(nM) | 2.73 log10(nM)
